Where two headings read alike, the source gives them in different places.

Test [1] concerns the target T1, CD73 on U138 human neuroglioma cells (Homo sapiens, UniProt P21589).
T1 construct: U138 cells were obtained from ATCC and cultured in DMEM with 10% FBS; host or cells: U138 human neuroglioma cells
T1 sequence (P21589 27-549): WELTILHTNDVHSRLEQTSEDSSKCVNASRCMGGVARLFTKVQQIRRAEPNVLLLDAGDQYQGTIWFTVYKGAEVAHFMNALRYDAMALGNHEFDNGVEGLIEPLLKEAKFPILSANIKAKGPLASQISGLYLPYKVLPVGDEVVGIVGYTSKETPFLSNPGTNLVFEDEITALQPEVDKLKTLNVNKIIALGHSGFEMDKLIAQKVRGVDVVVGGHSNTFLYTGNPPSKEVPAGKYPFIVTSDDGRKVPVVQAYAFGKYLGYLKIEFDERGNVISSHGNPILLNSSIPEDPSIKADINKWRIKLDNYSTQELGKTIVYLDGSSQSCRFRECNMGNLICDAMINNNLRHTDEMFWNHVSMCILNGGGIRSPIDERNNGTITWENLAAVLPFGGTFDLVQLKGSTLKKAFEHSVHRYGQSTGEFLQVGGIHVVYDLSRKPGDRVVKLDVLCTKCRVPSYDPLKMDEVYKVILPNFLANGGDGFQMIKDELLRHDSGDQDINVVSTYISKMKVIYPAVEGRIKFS
Put plainly: CD73 Cell-Based Assay. Put shortly: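 Whole U138 cells washed free of phosphate were incubated with 200 μM AMP (mixture concentration before equal-volume addition) plus compound in HEPES-buffered saline, pH 7.4, for 2 h at 37 °C, 5% CO2. Adenosine-forming activity read as inorganic phosphate released into supernatant by malachite green.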

The next test deals with T2, Human CD73 (Homo sapiens, UniProt P21589).
T2 construct: purchased R&D Systems; host or cells: CHO cells
T2 sequence (P21589 27-549): T1 sequence (P21589 27-549)
Put plainly: CD73 Enzyme Assay. The test is classed as biochemical. The following applies: read-out: CD73 Enzyme Assay IC50.

Where [2] appears, read: U138 cells, AMP substrate, 2 hours at 37° C., inorganic phosphate by malachite green.
The mark [3] stands for this setting: 0.25 nM hCD73, 25 μM AMP, kinetic read at 360 nm.

As a reminder, the IC50 is the concentration needed to halve the response being measured. `C[C@H](Nc1nc(Cl)nc2c1ccn2[C@@H]1O[C@H](CS(=O)(=O)CP(=O)(O)O)[C@@H](O)[C@H]1O)c1ccc(C#N)cc1` [Compound 181, [(2S,3S,4R,5R)-5-[2-chloro-4-[[(1S)-1-(4-cyanophenyl)ethyl]-amino]pyrrolo[2,3-d]-pyrimidin-7-yl]-3,4-dihydroxy-tetrahydro-furan-2-yl]methyl-sulfonylmethylphos-phonic acid]: the IC50 (in test [1] (setting [2]); on Human CD73 (setting [3])) was below 10 nM throughout.

On to `C[C@H](Nc1nc(Cl)nc2c1ccn2[C@@H]1O[C@H](CS(=O)(=O)CP(=O)(O)O)[C@@H](O)[C@H]1O)c1ccc(F)cc1F` [Compound 183, [(2S,3S,4R,5R)-5-[2-chloro-4-[[(1S)-1-(2,4-difluorophenyl)ethyl]-amino]pyrrolo[2,3-d]-pyrimidin-7-yl]-3,4-dihydroxy-tetrahydro-furan-2-yl]methyl-sulfonylmethylphos-phonic acid], for which the IC50 (in test [1] (setting [2]); at Human CD73 (setting [3])) was below 10 nM in each case.

As to `C[C@@H](Nc1nc(Cl)nc2c1ccn2[C@@H]1O[C@H](CS(=O)(=O)CP(=O)(O)O)[C@@H](O)[C@H]1O)c1cccc(C#N)c1` [Compound 180, [(2S,3S,4R,5R)-5-[2-chloro-4-[[(1R)-1-(3-cyanophenyl)ethyl]-amino]pyrrolo[2,3-d]-pyrimidin-7-yl]-3,4-dihydroxy-tetrahydro-furan-2-yl]methyl-sulfonylmethylphos-phonic acid], the IC50 (in test [1] (setting [2]); on Human CD73 (setting [3])) was below 10 nM throughout.

As for `O=P(O)(O)COC[C@H]1O[C@@H](n2ccc3c(NC4CCCC4)nc(OCCCO)nc32)[C@H](O)[C@@H]1O` [Compound 258, [(2R,3S,4R,5R)-5-[4-(cyclopentylamino)-2-(3-hydroxypropoxy)-pyrrolo[2,3-d]pyrimidin-7-yl]-3,4-dihydroxy-tetrahydrofuran-2-yl]-methoxymethylphos-phonic acid], the IC50 in test [1] (setting [2]) is below 10 nM; on Human CD73 (setting [3]), 10 to 100 nM.

`N#Cc1nc(NC2CCC2)c2cnn([C@@H]3O[C@H](CS(=O)(=O)CP(=O)(O)O)[C@@H](O)[C@H]3O)c2n1` [Compound 308, [(2S,3S,4R,5R)-5-[6-cyano-4-(cyclobutyl-amino)pyrazolo[3,4-d]-pyrimidin-1-yl]-3,4-dihydroxy-tetrahydro-furan-2-yl]methyl-sulfonylmethylphos-phonic acid]: the IC50 (in test [1] (setting [2]); on Human CD73 (setting [3])) was below 10 nM in each case.

Consider `CC(C)(C)C(=O)OCOP(=O)(O)COC[C@H]1O[C@@H](n2ccc3c(NC4CCCC4)nc(Cl)nc32)[C@H](O)[C@@H]1O` [Compound 188, [(2R,3S,4R,5R)-5-[2-chloro-4-(cyclopentyl-amino)pyrrolo[2,3-d]-pyrimidin-7-yl]-3,4-dihydroxy-tetrahydro-furan-2-yl]methoxy-methyl-(2,2-dimethyl-propanoyloxymethoxy)-phosphinic acid], for which the IC50 is 100 to 1000 nM in test [1] (setting [2]) and below 10 nM at Human CD73 (setting [3]).

Consider `CC(C)Nc1nc(C#N)nc2c1ccn2[C@@H]1O[C@H](COCP(=O)(O)O)[C@@H](O)[C@H]1O` [Compound 97, [(2R,3S,4R,5R)-5-[2-cyano-4-(isopropyl-amino)pyrrolo[2,3-d]-pyrimidin-7-yl]-3,4-dihydroxy-tetrahydro-furan-2-yl]methoxy-methylphosphonic acid], for which the IC50 in test [1] (setting [2]) is below 10 nM; at Human CD73 (setting [3]), 10 to 100 nM.

Turning to `CCNc1nc(Cl)nc2c1ccn2[C@@H]1O[C@H](CS(=O)(=O)CP(=O)(O)O)[C@@H](O)[C@H]1O` [Compound 176, [(2S,3S,4R,5R)-5-[2-chloro-4-(ethylamino)-pyrrolo[2,3-d]-pyrimidin-7-yl]-3,4-dihydroxy-tetrahydro-furan-2-yl]methyl-sulfonylmethylphos-phonic acid], the IC50 (in test [1] (setting [2]); on Human CD73 (setting [3])) was 10 to 100 nM each time.

Regarding `N#Cc1nc(N2CCC(F)(F)C2)c2ccn([C@@H]3O[C@H](COCP(=O)(O)O)[C@@H](O)[C@H]3O)c2n1` [Compound 125, [(2R,3S,4R,5R)-5-[2-cyano-4-(3,3-difluoropyrrolidin-1-yl)-pyrrolo[2,3-d]-pyrimidin-7-yl]-3,4-dihydroxy-tetrahydro-furan-2-yl]methoxy-methylphosphonic acid], the IC50 (in test [1] (setting [2]); at Human CD73 (setting [3])) was below 10 nM in each case.

For `CCOP(=O)(O)COC[C@H]1O[C@@H](n2ccc3c(NC4CCCC4)nc(Cl)nc32)[C@H](O)[C@@H]1O` [Compound 184, [(2R,3S,4R,5R)-5-[2-chloro-4-(cyclopentyl-amino)pyrrolo[2,3-d]-pyrimidin-7-yl]-3,4-dihydroxy-tetrahydro-furan-2-yl]methoxy-methylethoxy-phos-phinic acid], the IC50 was 100 to 1000 nM in test [1] and above 1000 nM on Human CD73.

Regarding `CC(C)Nc1nc(Cl)nc2c1ncn2[C@@H]1O[C@H](COCP(=O)(O)O)[C@@H](O)[C@H]1O` [Compound 15, [(2R,3S,4R,5R)-5-[2-chloro-6-(isopropyl-amino)purin-9-yl]-3,4-dihydroxy-tetra-hydrofuran-2-yl]-methoxymethylphos-phonic acid], the IC50 in test [1] (setting [2]) lay in the range of 100 to 1000 nM; at Human CD73 (setting [3]) it was 10 to 100 nM.

On to `CC[C@@H](Nc1nc(Cl)nc2c1ccn2[C@@H]1O[C@H](COCP(=O)(O)O)[C@@H](O)[C@H]1O)c1ccccc1` [Compound 77, [(2R,3S,4R,5R)-5-[2-chloro-4-[[(1R)-1-phenylpropyl]amino]-pyrrolo[2,3-d]-pyrimidin-7-yl]-3,4-dihydroxy-tetrahydro-furan-2-yl]methoxy-methylphosphonic acid], for which the IC50 (in test [1] (setting [2]); at Human CD73 (setting [3])) was 10 to 100 nM throughout.

For `COCCOc1nc(NC2CCCC2)c2ccn([C@@H]3O[C@H](COCP(=O)(O)O)[C@@H](O)[C@H]3O)c2n1` [Compound 260, [(2R,3S,4R,5R)-5-[4-(cyclopentylamino)-2-(2-methoxyethoxy)-pyrrolo[2,3-d]-pyrimidin-7-yl]-3,4-dihydroxy-tetrahydro-furan-2-yl]methoxy-methylphosphonic acid], the IC50 (in test [1] (setting [2]); on Human CD73 (setting [3])) was 10 to 100 nM in each case.

For the compound `O=P(O)(O)CS(=O)(=O)C[C@H]1O[C@@H](n2ccc3c(NC4CC(F)(F)C4)nc(Cl)nc32)[C@H](O)[C@@H]1O` [Compound 173, [(2S,3S,4R,5R)-5-[2-chloro-4-[(3,3-difluoro-cyclobutyl)amino]-pyrrolo[2,3-d]-pyrimidin-7-yl]-3,4-dihydroxy-tetrahydro-furan-2-yl]methyl-sulfonylmethylphos-phonic acid], the IC50 (in test [1] (setting [2]); at Human CD73 (setting [3])) was below 10 nM each time.

Consider `O=P(O)(O)COC[C@H]1O[C@@H](c2ccc3c(NC4CCCC4)nc(Cl)nn23)[C@H](O)[C@@H]1O` [Compound 298, [(2R,3S,4R,5S)-5-[2-chloro-4-(cyclopentyl-amino)pyrrolo[2,1-f]-[1,2,4]triazin-7-yl]-3,4-dihydroxy-tetrahydro-furan-2-yl]methoxy-methylphosphonic acid], for which the IC50 (in test [1] (setting [2]); at Human CD73 (setting [3])) was below 10 nM each time.

For `O=P(O)(O)COC[C@H]1O[C@@H](n2ccc3c(NC4CCC4)nc(Cl)nc32)[C@H](O)[C@@H]1O` [Compound 109, [(2R,3S,4R,5R)-5-[2-chloro-4-(cyclobutyl-amino)pyrrolo[2,3-d]-pyrimidin-7-yl]-3,4-dihydroxy-tetrahydro-furan-2-yl]methoxy-methylphosphonic acid], the IC50 (in test [1] (setting [2]); on Human CD73 (setting [3])) was below 10 nM each time.

In the case of `O=P(O)(O)COC[C@H]1O[C@@H](n2ccc3c(N4CCOCC4)nc(Cl)nc32)[C@H](O)[C@@H]1O` [Compound 100, [(2R,3S,4R,5R)-5-(2-chloro-4-morpholino-pyrrolo[2,3-d]-pyrimidin-7-yl)-3,4-dihydroxy-tetrahydro-furan-2-yl]methoxy-methylphosphonic acid], the IC50 (in test [1] (setting [2]); at Human CD73 (setting [3])) was 10 to 100 nM in each case.

With `C[C@@H](Nc1nc(Cl)nc2c1cnn2[C@@H]1O[C@H](COCP(=O)(O)O)[C@@H](O)[C@H]1O)c1ccc(F)cc1` [Compound 269, [(2R,3S,4R,5R)-5-[6-chloro-4-[[(1R)-1-(4-fluorophenyl)ethyl]-amino]pyrazolo[3,4-d]-pyrimidin-1-yl]-3,4-dihydroxy-tetrahydro-furan-2-yl]methoxy-methylphosphonic acid], the IC50 in test [1] (setting [2]) is below 10 nM; on Human CD73 (setting [3]), 10 to 100 nM.

For `O=P(O)(O)COC[C@H]1O[C@@H](n2ccc3c(N4CCC(F)(F)C4)nc(Cl)nc32)[C@H](O)[C@@H]1O` [Compound 123, [(2R,3S,4R,5R)-5-[2-chloro-4-(3,3-difluoro-pyrrolidin-1-yl)pyrrolo-[2,3-d]pyrimidin-7-yl]-3,4-dihydroxy-tetrahydrofuran-2-yl]-methoxymethylphos-phonic acid], the IC50 (in test [1] (setting [2]); at Human CD73 (setting [3])) was below 10 nM in each case.

Values taken from patent publication US11591355B2 (Peloton Therapeutics, Inc., priority 2017, dated 2023).
